Blank lines part the entries; values can stand above or below the compound they belong to. The source made the active and inactive calls. The rule behind the calls is not given here.
Columns and labels:
[1] = molecular target: T1, Muscarinic acetylcholine receptor M3 (Homo sapiens, UniProt P20309); assay: Displacement of [3H]-N-methyl scopolamine from human cloned muscarinic M3 receptor
Target sequence in this assay (P20309 whole entry): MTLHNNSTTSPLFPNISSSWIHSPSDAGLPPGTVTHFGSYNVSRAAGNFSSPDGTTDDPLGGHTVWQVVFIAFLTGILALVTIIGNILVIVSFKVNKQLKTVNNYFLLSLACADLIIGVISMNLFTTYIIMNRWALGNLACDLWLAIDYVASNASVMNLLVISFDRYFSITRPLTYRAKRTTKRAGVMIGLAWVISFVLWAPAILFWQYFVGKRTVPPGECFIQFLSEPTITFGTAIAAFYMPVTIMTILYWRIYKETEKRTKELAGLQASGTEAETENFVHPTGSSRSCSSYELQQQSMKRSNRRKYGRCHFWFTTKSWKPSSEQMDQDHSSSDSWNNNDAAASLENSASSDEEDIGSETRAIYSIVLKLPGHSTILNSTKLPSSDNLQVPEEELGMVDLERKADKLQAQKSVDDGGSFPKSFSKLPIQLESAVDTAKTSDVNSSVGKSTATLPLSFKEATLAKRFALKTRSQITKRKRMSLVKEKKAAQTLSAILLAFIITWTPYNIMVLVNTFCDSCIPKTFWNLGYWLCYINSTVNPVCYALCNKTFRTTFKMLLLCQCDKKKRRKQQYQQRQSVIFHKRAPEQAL

[2] = molecular target: T2, Beta-2 adrenergic receptor (Homo sapiens, UniProt P07550); assay: Agonist activity at human beta-2 adrenoceptor expressed in CHO cells assessed as stimulation of intracellular cAMP production; assay type: functional, cell-based
Target sequence in this assay (P07550 whole entry): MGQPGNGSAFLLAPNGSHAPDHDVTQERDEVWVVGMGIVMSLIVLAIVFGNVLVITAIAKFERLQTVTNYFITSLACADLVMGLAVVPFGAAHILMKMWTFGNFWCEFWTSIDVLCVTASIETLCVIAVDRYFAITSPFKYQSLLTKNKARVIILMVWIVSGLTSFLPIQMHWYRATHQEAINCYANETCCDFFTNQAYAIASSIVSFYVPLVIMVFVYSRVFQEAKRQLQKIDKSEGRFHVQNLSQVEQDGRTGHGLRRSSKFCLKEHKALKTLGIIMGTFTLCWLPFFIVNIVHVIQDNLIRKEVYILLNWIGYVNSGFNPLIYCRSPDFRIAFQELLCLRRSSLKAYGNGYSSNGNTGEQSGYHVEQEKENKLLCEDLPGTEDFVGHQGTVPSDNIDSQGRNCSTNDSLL

[3] = molecular target: Beta-1 adrenergic receptor (Homo sapiens, UniProt P08588); assay: Agonist activity at beta-1 adrenoceptor (unknown origin)
Sequence of Beta-1 adrenergic receptor (P08588 whole entry): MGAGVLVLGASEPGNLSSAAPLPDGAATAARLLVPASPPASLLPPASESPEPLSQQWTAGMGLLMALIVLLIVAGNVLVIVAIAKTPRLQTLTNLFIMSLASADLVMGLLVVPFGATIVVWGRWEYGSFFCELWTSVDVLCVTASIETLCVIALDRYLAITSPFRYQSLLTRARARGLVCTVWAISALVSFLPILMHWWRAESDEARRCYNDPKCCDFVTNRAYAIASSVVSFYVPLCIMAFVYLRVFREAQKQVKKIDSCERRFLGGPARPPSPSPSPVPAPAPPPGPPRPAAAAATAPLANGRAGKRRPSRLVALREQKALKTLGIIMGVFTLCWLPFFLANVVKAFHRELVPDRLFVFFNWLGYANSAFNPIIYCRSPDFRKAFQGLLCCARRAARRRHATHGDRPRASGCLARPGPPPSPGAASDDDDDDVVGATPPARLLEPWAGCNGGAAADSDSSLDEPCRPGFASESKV

[4] = Drug metabolism of the compound in human liver microsomes assessed as glucuronidation in absence of NADPH and presence of microsomal activator Brij58 and UDPGA
[5] = Intrinsic clearance in human liver microsomes assessed as glucuronidation in absence of NADPH and presence of microsomal activator Brij58 and UDPGA
[6] = tested on: Salmonella typhimurium; assay: Genotoxicity in Salmonella typhimurium assessed by Ames test; assay type: toxicity, organism-based; details: salmonella enterica subsp. enterica serovar typhimurium
[7] = Drug metabolism in human hepatocytes assessed as formation of phenol glucuronide and sulfate metabolite by LC/MS/MS analysis; assay type: ADME, cell-based, Hepatocyte
[8] = molecular target: T2, Beta-2 adrenergic receptor; assay: Ratio of EC50 for human beta-2 adrenoceptor measured after drug washout to EC50 for human beta-2 adrenoceptor
Target sequence in this assay (P07550 whole entry, looked up): as the sequence (P07550 whole entry) above

[9] = molecular target: T1, Muscarinic acetylcholine receptor M3; assay: Displacement of [3H]-N-methyl scopolamine from human cloned muscarinic M3 receptor assessed as time taken to reach 50% of total [3H]-NMS
Target sequence in this assay (P20309 whole entry, looked up): as the sequence (P20309 whole entry) above

[10] = Modulation of beta-2 adrenoceptor/muscarinic M3 receptor in guinea pig trachea assessed as inhibition of electric field stimulated muscle contraction by measuring release of endogenous acetylcholine; assay type: tissue-based, Cavia porcellus
[11] = species on record: Cavia porcellus; assay: Modulation of beta-2 adrenoceptor/muscarinic M3 receptor in guinea pig trachea assessed as time taken for muscle tone at submaximal concentration of compound to recover by 50% of inhibition induced; assay type: tissue-based
[12] = molecular target: Muscarinic acetylcholine receptor M3 (Cavia porcellus, UniProt Q8VH26); assay: Antagonist activity at muscarinic M3 receptor in guinea pig trachea assessed as inhibition of electric field stimulated muscle contraction by measuring release of endogenous acetylcholine in presence of propranolol
Sequence of Muscarinic acetylcholine receptor M3 (Cavia porcellus, UniProt Q8VH26) (Q8VH26 whole entry): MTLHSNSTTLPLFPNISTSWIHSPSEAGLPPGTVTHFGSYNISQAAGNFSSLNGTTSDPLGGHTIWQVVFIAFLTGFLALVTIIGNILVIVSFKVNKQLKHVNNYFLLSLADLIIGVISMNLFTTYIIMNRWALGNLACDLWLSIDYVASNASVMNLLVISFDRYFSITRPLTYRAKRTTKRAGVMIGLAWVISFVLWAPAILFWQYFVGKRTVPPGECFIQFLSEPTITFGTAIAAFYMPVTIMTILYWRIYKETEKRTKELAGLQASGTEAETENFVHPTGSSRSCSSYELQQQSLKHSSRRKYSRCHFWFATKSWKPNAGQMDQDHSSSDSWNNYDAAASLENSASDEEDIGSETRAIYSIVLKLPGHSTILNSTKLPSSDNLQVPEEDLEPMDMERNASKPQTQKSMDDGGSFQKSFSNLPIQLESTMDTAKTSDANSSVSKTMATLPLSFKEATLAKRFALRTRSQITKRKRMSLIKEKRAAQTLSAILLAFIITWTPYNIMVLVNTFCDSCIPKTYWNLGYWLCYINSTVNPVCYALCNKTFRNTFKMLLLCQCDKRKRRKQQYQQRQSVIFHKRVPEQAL

[13] = molecular target: Muscarinic acetylcholine receptor M3 (Cavia porcellus) (UniProt Q8VH26); assay: Antagonist activity at muscarinic M3 receptor in guinea pig trachea assessed as time taken for muscle tone at submaximal concentration of compound to recover by 50% of inhibition induced in presence of propranolol
Sequence of Muscarinic acetylcholine receptor M3 (Cavia porcellus) (Q8VH26 1-587): as the sequence (Q8VH26 whole entry) above

[14] = molecular target: Beta-2 adrenergic receptor (Cavia porcellus, UniProt Q8K4Z4); assay: Agonist activity at beta-2 adrenoceptor in guinea pig trachea assessed as inhibition of histamine-induced muscle contraction
Sequence of Beta-2 adrenergic receptor (Cavia porcellus, UniProt Q8K4Z4) (Q8K4Z4 whole entry): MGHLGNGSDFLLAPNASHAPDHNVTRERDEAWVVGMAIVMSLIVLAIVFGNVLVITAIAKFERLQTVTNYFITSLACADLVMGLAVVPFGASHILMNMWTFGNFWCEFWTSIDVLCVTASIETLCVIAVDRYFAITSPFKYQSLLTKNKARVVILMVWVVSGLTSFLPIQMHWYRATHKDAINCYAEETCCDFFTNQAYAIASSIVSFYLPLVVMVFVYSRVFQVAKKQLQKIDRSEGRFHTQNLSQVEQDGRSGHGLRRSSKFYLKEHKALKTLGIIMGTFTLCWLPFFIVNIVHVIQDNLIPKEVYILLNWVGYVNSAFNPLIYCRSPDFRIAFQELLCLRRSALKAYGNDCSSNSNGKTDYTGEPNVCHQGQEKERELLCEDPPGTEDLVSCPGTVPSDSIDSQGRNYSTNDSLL

[15] = tested on: Canis familiaris; assay: Bronchodilatory activity in intratracheally dosed dog assessed as inhibition of methacholine-induced bronchoconstriction; assay type: functional, Canis lupus familiaris
[16] = tested on: Canis familiaris; assay: Bronchodilatory activity in intratracheally dosed dog assessed as duration of inhibition of methacholine-induced bronchoconstriction; assay type: functional, Canis lupus familiaris
[17] = tested on: Canis familiaris; assay: Bronchodilatory activity in intratracheally dosed dog assessed as inhibition of methacholine-induced bronchoconstriction in presence of propranolol; assay type: functional, organism-based; details: Canis lupus familiaris
[18] = species on record: Cavia porcellus; assay: Bronchodilatory activity in guinea pig in presence of propranolol; assay type: functional, organism-based
[19] = tested on: Canis familiaris; assay: Bronchodilatory activity in intratracheally dosed dog assessed as inhibition of methacholine-induced bronchoconstriction in presence of NK2 agonist BANA; assay type: functional, organism-based; details: Canis lupus familiaris
[20] = species on record: Cavia porcellus; assay: Bronchodilatory activity in guinea pig in presence of NK2 agonist BANA; assay type: functional, organism-based
[21] = Genotoxicity in micronucleus (unknown origin)
[22] = species on record: Oryctolagus cuniculus; assay: Toxicity in rabbit cough model; assay type: organism-based; details: in vivo
[23] = AUC in rat at 2 mg/kg, iv; assay type: ADME, organism-based; parameters: dose 2 mg/kg, route intravenous; details: plasma
[24] = Clearance in rat at 2 mg/kg, iv; assay type: ADME, organism-based; parameters: dose 2 mg/kg, route intravenous; details: in vivo
[25] = AUC in rat at 0.2 mg/kg, po; assay type: ADME, organism-based; parameters: dose 0.2 mg/kg, route oral; details: plasma
[26] = Clearance in rat at 0.2 mg/kg, po; assay type: ADME, organism-based; parameters: dose 0.2 mg/kg, route oral; details: in vivo
[27] = Half life in rat at 0.2 mg/kg, po; assay type: ADME, organism-based; parameters: dose 0.2 mg/kg, route oral; details: in vivo
[28] = AUC in guinea pig at 0.2 mg/kg, po; assay type: ADME, organism-based, Cavia porcellus; parameters: dose 0.2 mg/kg, route oral; details: plasma
[29] = Clearance in guinea pig at 0.2 mg/kg, po; assay type: ADME, organism-based, Cavia porcellus; parameters: dose 0.2 mg/kg, route oral; details: in vivo
[30] = Half life in guinea pig at 0.2 mg/kg, po; assay type: ADME, organism-based, Cavia porcellus; parameters: dose 0.2 mg/kg, route oral; details: in vivo
[31] = Stability of the compound at 70 degC and 75% relative humidity assessed as impurity after 7 days; assay type: physicochemical; details: 168 h

Compound: CS(=O)(=O)Nc1cc([C@@H](O)CNCCCCCCCCCN2CCC(OC(=O)Nc3ccccc3-c3ccc(F)cc3O)CC2)ccc1O
Ki [1]: 0.026 µM
EC50 [3]: > 10 µM
microsomal CLint [4]: < 2 µL/min/mg
microsomal CLint [5]: 8.8 µL/min/mg

Compound: CS(=O)(=O)Nc1cc([C@@H](O)CNCCCCCCCCCN2CCC(OC(=O)Nc3ccccc3-c3cc(C#N)ccc3O)CC2)ccc1O
Ki [1]: > 0.073 µM
EC50 [3]: > 10 µM
microsomal CLint [4]: 3.7 µL/min/mg
microsomal CLint [5]: 33 µL/min/mg

Compound: CS(=O)(=O)Nc1cc([C@@H](O)CNCCCCCCCCCN2CCC(OC(=O)Nc3ccccc3-c3ccc(O)c(Cl)c3)CC2)ccc1O
Ki [1]: 0.00073 µM
EC50 [2]: 0.0037 µM
Activity [6]: Non-toxic
EC50 [3]: > 10 µM
microsomal CLint [4]: 24 µL/min/mg
microsomal CLint [5]: 23 µL/min/mg
Drug metabolism [7]: Active
Ratio EC50 [8]: 1.5
TIME [9]: 1.95 h
EC50 [10]: 0.0073 µM
TIME [11]: > 11 h
EC50 [12]: 0.012 µM
TIME [13]: > 11 h
EC50 [14]: 0.0058 µM
ID50 [15]: 50 µg
Time [16]: 14 h
Activity [17]: Active
Activity [18]: Active
Activity [19]: Active
Activity [20]: Active
Activity [21]: Non-toxic
Activity [22]: Non-toxic
AUC [23]: 0.125 µg·h/mL
clearance [24]: 9.84 L/h/kg
AUC [25]: 0.256 µg·h/mL
CL/F [26]: 0.84 L/h/kg
half-life [27]: 1.6 h
AUC [28]: 0.92 µg·h/mL
CL/F [29]: 0.216 L/h/kg
half-life [30]: 0.8 h
Stability [31]: Stable

Compound: CS(=O)(=O)Nc1cc([C@@H](O)CNCCCCCCCCCN2C3CCC2CC(OC(=O)Nc2ccccc2-c2ccc(O)c(Cl)c2)C3)ccc1O (stereo partly specified)
Ki [1]: 0.0089 µM
EC50 [2]: 0.023 µM
EC50 [3]: > 10 µM
microsomal CLint [4]: 7.8 µL/min/mg
microsomal CLint [5]: 8 µL/min/mg

Compound: CS(=O)(=O)Nc1cc([C@@H](O)CNCCCCCCCCN2CCC(OC(=O)Nc3ccccc3-c3ccc(O)c(Cl)c3)CC2)ccc1O
Ki [1]: 0.0011 µM
EC50 [2]: 0.02 µM
EC50 [3]: > 10 µM
microsomal CLint [4]: 24 µL/min/mg
microsomal CLint [5]: 17 µL/min/mg

Compound: CS(=O)(=O)Nc1cc([C@@H](O)CNCCCCCCCCCN2CCC(OC(=O)Nc3ccccc3-c3cccc(F)c3O)CC2)ccc1O
Ki [1]: 0.01 µM
EC50 [3]: > 10 µM
microsomal CLint [4]: < 2 µL/min/mg

Compound: Cc1ccc(NC(=O)OC2CCN(CCCCCCCCCNC[C@H](O)c3ccc(O)c(NS(C)(=O)=O)c3)CC2)c(-c2ccc(O)c(Cl)c2)c1
Ki [1]: 0.0048 µM
EC50 [3]: > 10 µM
microsomal CLint [4]: 19 µL/min/mg
microsomal CLint [5]: 22 µL/min/mg

Compound: CS(=O)(=O)Nc1cc([C@@H](O)CNCCCCCCCCCN2CC[C@@H](OC(=O)Nc3ccccc3-c3ccc(O)c(Cl)c3)C2)ccc1O
Ki [1]: 0.0092 µM
EC50 [2]: 0.024 µM
EC50 [3]: > 10 µM
microsomal CLint [4]: 51 µL/min/mg
microsomal CLint [5]: 39 µL/min/mg

Compound: CS(=O)(=O)Nc1cc([C@@H](O)CNCCCCCCCCCN2CCC(OC(=O)Nc3ccccc3-c3ccc(O)c(F)c3)CC2)ccc1O
Ki [1]: 0.005 µM
EC50 [2]: 0.026 µM
EC50 [3]: > 10 µM
microsomal CLint [4]: 30 µL/min/mg
microsomal CLint [5]: 16 µL/min/mg

Results, then the compound that gave them:

Ki [1]: 0.0031 µM
EC50 [2]: 0.013 µM
EC50 [3]: > 10 µM
microsomal CLint [4]: 29 µL/min/mg
microsomal CLint [5]: 33 µL/min/mg
Compound: CS(=O)(=O)Nc1cc([C@@H](O)CNCCc2ccc(OCCCN3CCC(OC(=O)Nc4ccccc4-c4ccc(O)c(Cl)c4)CC3)cc2)ccc1O

Ki [1]: 0.076 µM
EC50 [2]: 0.065 µM
EC50 [3]: > 10 µM
microsomal CLint [4]: 4 µL/min/mg
microsomal CLint [5]: 28 µL/min/mg
Compound: CS(=O)(=O)Nc1cc([C@@H](O)CNCCCCCCCCCN2CCC(OC(=O)Nc3ccccc3-c3cc(O)cc(F)c3)CC2)ccc1O

Ki [1]: 0.0022 µM
EC50 [2]: 0.026 µM
EC50 [3]: > 10 µM
microsomal CLint [4]: 4 µL/min/mg
microsomal CLint [5]: 20 µL/min/mg
Compound: CS(=O)(=O)Nc1cc([C@@H](O)CNCCCCCCCCCN2CCC(OC(=O)Nc3ccccc3-c3ccc(O)cc3)CC2)ccc1O

Ki [1]: 0.0037 µM
EC50 [2]: 0.129 µM
EC50 [3]: > 10 µM
microsomal CLint [4]: < 3.5 µL/min/mg
microsomal CLint [5]: 26 µL/min/mg
Compound: CS(=O)(=O)Nc1cc([C@@H](O)CNCCCCCCCCCN2CCC(OC(=O)Nc3ccccc3-c3cccc(O)c3)CC2)ccc1O

Ki [1]: 0.0013 µM
EC50 [2]: 0.042 µM
EC50 [3]: > 10 µM
microsomal CLint [4]: 13 µL/min/mg
microsomal CLint [5]: 7 µL/min/mg
Compound: CS(=O)(=O)Nc1cc([C@@H](O)CNCCCCCCCCCN2C[C@@H]3[C@@H](COC(=O)Nc4ccccc4-c4ccc(O)c(Cl)c4)[C@@H]3C2)ccc1O

Source: ChEMBL document CHEMBL3217601, “Optimized glucuronidation of dual pharmacology -2 agonists/M3 antagonists for the treatment of COPD” (Medchemcomm, 2011)
